Measured values as given in patent publication US5405857A, “3-substituted 1,2,3,4,-oxatriazole-5-imine compounds, a process for the preparation thereof and a pharmaceutical preparation containing said compounds” (A/S GEA Farmaceutisk Fabrik, priority 1991, dated 1995).
Entries after “also recorded” stand apart in the source; their conditions may differ. Counter-ions that a name gives are not always drawn.

What was measured:
blood platelets = experiment: Inhibition of blood platelet aggregation (aggregometer, ADP); assay type: cell-based, human (healthy testees); conditions: Platelet, 0.05 h; human PRP, ADP 2 to 4 μM, 3 min incubation, 37° C.; read-out: IC50 (Inhibition of blood platelet aggregation)
Method: Compounds according to the invention were tested for their inhibition of clumping together (aggregation) of blood platelets (thrombocytes), which is the first phase of the formation of blood clots (thrombi). Such an inhibition may prevent the formation of blood clots and inhibit the development of new thrombi after a diagnosed thrombus.
Citrate stabilized ( 0.38% of sodium citrate, final concentration) venous blood from healthy testees is used, who have not used medicine for at least 8 days. Slight centrifugation (160×g for 10 minutes) results in PRP (blood plasma rich in platelets) which is pipetted. PPP (blood plasma poor in platelets) is obtained by an intense centrifugation (3000×g for 10 minutes) of the remaining blood. The light transmission is measured by the aggregometer (CHRONOLOG). PRP allows nearly no light transmitaaion, while PPP allows complete transmission of light. The PRP is placed in the aggregometer at 37° C. while being stirred by a magnet. Addition of a pro-aggregating substance causes the PRP to aggregate gradually and an increasing light transmission takes place at the same time. At complete aggregation a light transmission corresponding to PPP is obtained. Adnosine diphosphate (ADP) is used as pro-aggregating substance, said substance representing a basic biochemical mechanism for aggregation of blood platelets. The test substances are incubated for 3 minutes in PRP placed in the aggregometer at 37° C. during magnetic stirring. A predetermined positively aggregating dosage of adenosine diphosphate (ADP) (2 to 4 μM) is then added. […] A so-called IC50 -value (that is the concentration inhibiting the aggregation by 50% relative to the control aggregation) is calculated for each test substance by linear regression analysis (log concentration μM as constant ad abscissa and % inhibition as variable ad ordinate). The following known reference substances have been used: nitroglycerine (GTN), sodium nitroprusside (NNP) and SIN-1 (the active metabolite of molsidomine).

male rats [1] = experiment: Maximum tolerable dose (MTD) study p.o.; as to Clinical observations: key: N.R.: nothing remarkable; as to Increase in weight: key: N.R.: nothing remarkable; assay type: in vivo, rat; conditions: p.o.
Method: (§1) Two tests were carried out on male rats, namely a determination of the "maximum tolerable dose" (MTD) and a test using multiple peroral doses. In addition, a LD50 test was carried out intravenously on mice.
(§2) In a MTD-test 10 animals were administered a dose of the substance once a day for a week, during which period the clinical and hematological parameters were recorded. When no signs of side effects appeared, the dose was increased in the following weeks until side effects appeared. The hemotological parameters measured were the following: the number of red and white blood cells, the number of blood platelets, the hemoglobin percentage, the hematocrit, and for the red blood cells also the average cell volume, the average cell hemoglobin content, and the average cell hemoglobin concentration. Furthermore, a differential count of the white blood cells was made.

[2] = Maximum tolerable dose (MTD) study p.o.; as to Clinical observations: key: N.R.: nothing remarkable; as to Increase in weight: key: N.R.: nothing remarkable; assay type: in vivo, rat; conditions: rat, in vivo, po; peroral, rats
Method: as §1, §2

male rats [3] = experiment: Maximum tolerable dose (MTD) study i.p.; assay type: in vivo, rat; conditions: i.p.
Method: as §1, §2

[4] = Maximum tolerable dose (MTD) study i.p.; assay type: in vivo, rat; conditions: rat, in vivo, ip; intraperitoneal, rats
Method: as §1, §2

[5] = 10 mg/kg once a day for a week, relative to control
[6] = 20 mg/kg once a day for a week, relative to control
[7] = 40 mg/kg once a day for a week, relative to control
[8] = 20 mg/kg once a day for a week, relative to control, hydrochloride, 20 mg/kg

SMILES: Cc1c(Cl)cccc1-[n+]1noc([NH-])n1 [Example 1, 3-(3-chloro-2-methylphenyl)-1,2,3,4-oxatriazole-5-imine hydrochloride]
- IC50 (blood platelets): 320 nM
- Clinical observations (male rats [1]; [5]): N.R.
- Hematological parameters (male rats [1]; [5]): N.R.
- Increase in weight (male rats [1]; [5]): N.R.
- Clinical observations (male rats [1]; [6]): N.R.
- Hematological parameters (male rats [1]; [6]): N.R.
- Increase in weight (male rats [1]; [6]): N.R.
- Clinical observations (male rats [1]; [7]): N.R.
- Hematological parameters: hemoglobin percentage (HGB) (male rats [1]; [7]): reduced HGB
- Hematological parameters: red blood cells (RBC) (male rats [1]; [7]): reduced RBC
- Increase in weight (male rats [1]; [7]): N.R.
- Hematological parameters: white blood cells (WBC) (male rats [1]; 40 mg/kg once a day for a week, relative to control, hydrochloride, 40 mg/kg): increased WBC; also recorded: increased content of white blood cells
- Signs of anemia (male rats [1]; 40 mg/kg, after one week): signs of anemia
- MTD [2]: 40 mg/kg
- Clinical observations (male rats [3]; [5]): N.R.
- Hematological parameters (male rats [3]; [5]): N:R
- Increase in weight (male rats [3]; [5]): N.R.
- Increase in weight (male rats [3]; [6]): reduced
- Clinical observations (male rats [3]; [8]): a passing CNS effect, where the animals a few minutes after the administration seemed nervous and hyperactive
- Hematological parameters: neutrophilic granulocytes with toxic granulation (male rats [3]; [8]): increased number of neutrophilic granulocytes and a toxic granulation in some cells
- Tolerability (in words) (male rats [3]; rats, up to 20 mg/kg): tolerated with only minor side effects
- MTD [4]: ~20 mg/kg
